# Measured values from patent US20260226031A1, “NOVEL COMPOUNDS” (NRG THERAPEUTICS LTD., priority 2023, published 2026).
# Experiments:
# mPTP [1] = assay: mPTP activity (Ca2+ retention) assay in isolated rat liver mitochondria; format: biochemical; conditions: isolated rat liver mitochondria; Fluo5N fluorescence at 10 min after CaCl2 (75 μM) bolus; DMSO 0%, 5 μM cyclosporin A 100% inhibition
# Text: Pharmacological inhibition or modulation of the mPTP can be measured in well characterised ‘Ca^2+ retention’ assays performed in isolated mitochondria. In vitro, isolated mitochondria rapidly sequester exogenous Ca^2+ until the intramitochondrial Ca^2+ concentration reaches the threshold for mPTP activation. Once the pore is activated, mitochondrial integrity is compromised and the stored Ca^2+ is released. The distribution of Ca^2+ between extra- and intra-mitochondrial compartments can be measured in real time with the use of membrane-impermeant Ca^2+ sensitive fluorescent dyes. Depending on the configuration of the assay, inhibition or modulation of the mPTP either delays the opening of the pore or increases the concentration of Ca^2+ required to induce mPTP opening.
# MPTP activity was measured in mitochondria freshly isolated from female Sprague Dawley (250 to 300 gram) rat livers using the following method. Cervical dislocation was performed on the rat. The liver was then perfused in-situ with ~40 ml cold Dulbecco's Phosphate Buffered Saline (DPBS) prior to dissection and transferred into 30 ml Isolation Buffer (250 mM Sucrose, 10 mM KCl, 1 mM EGTA, 1 mM EDTA, 25 mM HEPES, adjusted to pH 7.5 with 1M NaOH). Each lobe of the liver was then removed from the buffer, minced using tweezers and a scalpel into ~5 mm pieces then transferred into a 50 ml Potterton dounce homogenization tube on ice containing 30 ml ice-cold centrifugation buffer (300 mM Trehalose, 25 mM HEPES, 1 mM EGTA, 1 mM EDTA, 10 mM KCl, adjusted to pH 7.5 with 1M NaOH and supplemented with 0.1% bovine serum albumin (BSA) and complete protease inhibitor cocktail (one tablet of inhibitor per 50 mls of buffer). Homogenisation was carried out using a Teflon® pestle at 1800 rpm. The slurry was centrifuged at 800 g for 10 min at 4° C., then the supernatant centrifuged at 10,000 g for 10 min. The pellet was washed once with FLIPR assay buffer (75 mM Mannitol, 25 mM Sucrose, 5 mM Potassium Phosphate Monobasic, 20 mM Tris base, 100 mM KCl, 0.1% BSA adjusted to pH 7.4 with 5M HCl) centrifuged again, then resuspended in FLIPR assay buffer to a concentration of 8.8 mg/ml protein.
# Tested compounds (10 mM stock in DMSO) were serially diluted in DMSO in half log steps to generate 10 test concentrations (final concentrations in assay 30 μM to 1 nM). An intermediate dilution of 5 μl DMSO samples into 247 μl FLIPR assay buffer was carried out prior to transfer of 5 μl into duplicate wells of a 384 well polypropylene assay plate. Control wells were 0.5% (v/v) DMSO and 5 μM cyclosporin A.
# A stock mitochondria/Fluo5N assay solution was prepared in 5.6 ml FLIPR assay buffer (at RT) supplemented with succinate disodium salt (10 mM), rotenone (1 μM), Fluo5N pentapotassium salt (2 μM) and 1 ml mitochondria suspension, then transferred (15 μl) into the assay plate containing test compounds and incubated for 10 min at RT. Assay plates were processed for fluorescence detection on either a FLIPR Tetra (Molecular Devices) or CLARIOstar (BMG) plate reader. For kinetic fluorescence detection on the FLIPR, dye fluorescence was measured every 3 sec for a total of 10 min. After 12 sec, a 2.5 μl bolus of CaCl2 (75 μM) was added from a source plate containing 675 μM CaCl2 in FLIPR assay buffer. Alternatively, the 2.5 μl addition of CaCl2 was performed using a Viaflow 384, plates were incubated at RT for 10 min, and dye fluorescence measured after 10 min on the CLARIOstar plate reader. pIC50 values for tested compounds were calculated using the fluorescence value collected at the 10 min timepoint on either plate reader, with % inhibition calculated using the DMSO control and cyclosporin A values as 0 and 100% respectively.
# mPTP [2] = assay: mPTP activity (Ca2+ retention) assay in isolated rat brain mitochondria; format: biochemical; conditions: isolated rat brain mitochondria; Fluo5N fluorescence at 10 min after Ca2+ (75 μM) bolus
# Procedure: MPTP activity was measured in brain mitochondria freshly isolated from female Sprague Dawley (250 to 300 gram) rats. Anaesthetised rats were perfused in-situ with ~40 ml cold Dulbecco's Phosphate Buffered Saline (DPBS), then brains dissected and transferred into 30 ml Isolation Buffer (225 mM mannitol, 75 mM sucrose, 1 mM EGTA, adjusted to pH 7.4 with 1M NaOH). The brain was minced using tweezers and a scalpel into ~5 mm pieces then transferred into a 50 ml Potterton Dounce homogenization tube on ice containing 10 ml ice-cold isolation buffer (as above with addition of Complete Protease inhibitor; 1 tablet per 50 ml buffer). Homogenisation was carried out using a Teflon® pestle at 1800 rpm. The slurry was centrifuged at 2000 g for 10 min at 4° C., then the supernatant centrifuged at 12,000 g for 9 min. The pellet was resuspended with a dounce homogeniser in isolation buffer as above but with the addition of 0.02% digitonin, centrifuged at 12,000 g for 11 min and finally resuspended in 5 ml modified isolation buffer (as above but with EGTA reduced to 0.1 mM).
# Test compounds were prepared in 384 well polypropylene assay plates as described above for the liver mitochondria assay. A stock mitochondria/Fluo5N assay solution was prepared in 5.6 ml assay buffer (120 mM mannitol, 40 mM MOPS, 5 mM KH2PO4, 60 mM KCl, 10 mM pyruvate, 2 mM malate, 2 mM MgCl2, 20 μM ADP, 1.26 μM oligomycin A, adjusted to pH 7.4) supplemented with Fluo5N pentapotassium salt (2 μM) and 1 ml mitochondria suspension, then transferred (15 μl) into the assay plate containing test compounds and incubated for 10 min at RT. Assay plates were then transferred to a FLIPR Tetra plate reader (Molecular Devices). Dye fluorescence was then measured every 3 sec for a total of 10 min.
mPTP Rat liver pIC50* (mPTP [1]),mPTP Rat brain pIC50 (mPTP [2]),SMILES
5.33,6.55,"Cn1nc(C(=O)N2C[C@@H](c3ccccc3)C3(CCC3)C2)[nH]c1=O (single isomer, unassigned) [Example 5b]"
<4.52,<4.52,"Cn1nc(C(=O)N2C[C@H](c3ccccc3)C3(CCC3)C2)[nH]c1=O (single isomer, unassigned) [Example 5c]"
6.39,7.34,"O=C(c1cncc(O)n1)N1CC(c2ccccc2)C2(CCC2)C1 (single isomer, unassigned) [Example 6a, (6-hydroxypyrazin-2-yl)(8-phenyl-6-azaspiro[3.4]octan-6-yl)methanone]"
4.59,<4.52,"O=C(c1cncc(O)n1)N1CC(c2ccccc2)C2(CCC2)C1 (single isomer, unassigned) [Example 6b, (6-hydroxypyrazin-2-yl)(8-phenyl-6-azaspiro[3.4]octan-6-yl)methanone]"
6.18,7.03,"CC1(C)CN(C(=O)c2cncc(=O)[nH]2)CC1c1ccccc1 (single isomer, unassigned) [Example 10a, 6-(3,3-dimethyl-4-phenylpyrrolidine-1-carbonyl)pyrazin-2(1H)-one]"
5.19,6.07,"CC1(C)CN(C(=O)c2cncc(=O)[nH]2)CC1c1ccccc1 (single isomer, unassigned) [Example 10b, 6-(3,3-dimethyl-4-phenylpyrrolidine-1-carbonyl)pyrazin-2(1H)-one]"
5.23,5.21,"O=C(c1cnn[nH]1)N1CC(c2ccccc2)C2(CCC2)C1 (single isomer, unassigned) [Example 14a, 8-Phenyl-6-(3H-1,2,3-triazole-4-carbonyl)-6-azaspiro[3.4]octane]"
<4.52,–,"O=C(c1cnn[nH]1)N1CC(c2ccccc2)C2(CCC2)C1 (single isomer, unassigned) [Example 14b, 8-phenyl-6-(3H-1,2,3-triazole-4-carbonyl)-6-azaspiro[3.4]octane]"
5.27,6.1,"CCC1CN(C(=O)c2cncc(=O)[nH]2)CC1c1ccccc1 (single isomer, unassigned) [Example 15a, 6-(3-ethyl-4-phenylpyrrolidine-1-carbonyl)pyrazin-2(1H)-one]"
<4.52,4.81,"CCC1CN(C(=O)c2cncc(=O)[nH]2)CC1c1ccccc1 (single isomer, unassigned) [Example 15b, 6-(3-ethyl-4-phenylpyrrolidine-1-carbonyl)pyrazin-2(1H)-one]"
5.24,5.93,"CCC1CN(C(=O)c2cncc(=O)[nH]2)CC1c1ccccc1 (single isomer, unassigned) [Example 15c, 6-(3-ethyl-4-phenylpyrrolidine-1-carbonyl)pyrazin-2(1H)-one]"
<4.52,<4.52,"CCC1CN(C(=O)c2cncc(=O)[nH]2)CC1c1ccccc1 (single isomer, unassigned) [Example 15d, 6-(3-ethyl-4-phenylpyrrolidine-1-carbonyl)pyrazin-2(1H)-one]"
5.58,6.39,"O=C(c1cncc(=O)[nH]1)N1CC(c2ccc(Cl)cc2)C2(CCC2)C1 (single isomer, unassigned) [Example 16a, 6-[8-(4-Chlorophenyl)-6-azaspiro[3.4]octane-6-carbonyl]-1H-pyrazin-2-one]"
<4.52,<4.52,"O=C(c1cncc(=O)[nH]1)N1CC(c2ccc(Cl)cc2)C2(CCC2)C1 (single isomer, unassigned) [Example 16b, 6-[8-(4-Chlorophenyl)-6-azaspiro[3.4]octane-6-carbonyl]-1H-pyrazin-2-one]"
6.52,–,"O=C(c1noc(=O)[nH]1)N1CC(c2cccc(F)c2)C2(CCC2)C1 (single isomer, unassigned) [Example 49a, 3-(8-(3-fluorophenyl)-6-azaspiro[3.4]octane-6-carbonyl)-1,2,4-oxadiazol-5(4H)-one]"
–,<4.52,"O=C(c1noc(=O)[nH]1)N1CC(c2cccc(F)c2)C2(CCC2)C1 (single isomer, unassigned) [Example 49b, 3-(8-(3-fluorophenyl)-6-azaspiro[3.4]octane-6-carbonyl)-1,2,4-oxadiazol-5(4H)-one]"
<4.52,–,"O=C(c1cncc(=O)[nH]1)N1CC2(CCC2)C1c1ccccc1 (centres unmarked) [Example 12, 6-(1-phenyl-2-azaspiro[3.3]heptane-2-carbonyl)pyrazin-2(1H)-one]"
4.55,–,"CC1CN(C(=O)c2cncc(=O)[nH]2)CC1c1ccccc1 (centres unmarked) [Example 13, 6-(3-methyl-4-phenylpyrrolidine-1-carbonyl)pyrazin-2(1H)-one]"

SMILES,mPTP Rat liver pIC50* (mPTP [1]),mPTP Rat brain pIC50 (mPTP [2])
"O=C(c1nccc(=O)[nH]1)N1CC(c2ccccc2)C2(CCC2)C1 (racemic) [Example 18, rac-2-{8-phenyl-6-azaspiro[3.4]octane-6-carbonyl}-3H-pyrimidin-4-one]",5.52,6.56
"O=C(c1cncc(O)c1)N1CC(c2ccccc2)C2(CCC2)C1 (single isomer, unassigned) [Example 1b, (5-hydroxypyridin-3-yl)(8-phenyl-6-azaspiro[3.4]octan-6-yl)methanone]",6.01,6.94
"O=C(c1cncc(O)c1)N1CC(c2ccccc2)C2(CCC2)C1 (single isomer, unassigned) [Example 1c, (5-hydroxypyridin-3-yl)(8-phenyl-6-azaspiro[3.4]octan-6-yl)methanone]",<4.52,–
"O=C(c1cc(O)ccn1)N1CC(c2ccccc2)C2(CCC2)C1 (centres unmarked) [Example 3, (4-hydroxypyridin-2-yl)(8-phenyl-6-azaspiro[3.4]octan-6-yl)methanone]",5.14,–
"Cn1nc(C(=O)N2CC(c3ccccc3)C3(CCC3)C2)[nH]c1=O (centres unmarked) [Example 5a, 2-methyl-5-(8-phenyl-6-azaspiro[3.4]octane-6-carbonyl)-2,4-dihydro-3H-1,2,4-triazol-3-one]",5.04,–
